Laboratory results from patent US9333214B2 (priority 2007, dated 2016).

What was measured:
P. aeruginosa = assay: Amikacin susceptibility testing (MIC) of P. aeruginosa sputum isolates; type: cell-based; details: for MIC: Pseudomonas aeruginosa
Experimental: Quantitative culture of sputum samples and subsequent amikacin susceptibility testing of each morphologically distinct P. aeruginosa were performed. The MIC of amikacin for the isolates with the highest MIC cultured from each subject at screening and Day 14 was documented. The density (CFU per gram of sputum) of P. aeruginosa in sputum was calculated as the log10 value for the sum of all morphotypes.

[1] = rat, in vivo
[2] = tested on: P. aeruginosa strain (mucoid strain 3064); assay: Rat model of chronic pulmonary infection with Pseudomonas (agar beads); type: in vivo, rats
[3] = Preclinical pharmacokinetics after inhalation in rats; details: equal dose by inhalation

| SMILES | MIC (P. aeruginosa; 0 h, Study 1, baseline (Day 0)) | MIC (P. aeruginosa; 336 h, Study 1, Day 14) | MIC (P. aeruginosa; Study 2, baseline) | mean MIC of amikacin for P. aeruginosa isolates (P. aeruginosa; Study 1, baseline (Day 0)) | time to undetectable lung levels after cessation of administration [1] | bacteria in lungs ([2]; 60 mg/kg (given twice per day) daily for 28 days) | bacterial density (log10CFU/lung) vs saline control ([2]; BID for 14 days, 30 mg/kg per dose) | AUC of drug in the kidneys vs Liposomal Amikacin aerosol [3] |
| --- | --- | --- | --- | --- | --- | --- | --- | --- |
| NCC[C@H](O)C(=O)N[C@@H]1C[C@H](N)[C@@H](O[C@H]2O[C@H](CN)[C@@H](O)[C@H](O)[C@H]2O)[C@H](O)[C@H]1O[C@H]1O[C@H](CO)[C@@H](O)[C@H](N)[C@H]1O [amikacin] | 8 µg/mL | 30.8 µg/mL | 41 µg/mL | 8.04 µg/mL |  |  |  |  |
| NC[C@H]1O[C@H](O[C@H]2[C@H](O)[C@@H](O[C@H]3O[C@H](CO)[C@@H](O)[C@H](N)[C@H]3O)[C@H](N)C[C@@H]2N)[C@H](N)C[C@@H]1O [tobramycin] |  |  |  |  | ≤ 6 h | below the limit of detection | significant reduction | significantly higher |
